This note sets out measurements from patent US11845724B2, “USP30 inhibitors and uses thereof” (Vincere Biosciences, Inc., priority 2019, dated 2023).

In one test the target is USP30 (Homo sapiens (Human), UniProt Q70CQ3). Kind of test: Dundee MALDI-TOF mass spectrometry assay (IC50). It is filed as biochemical. As to conditions: USP30 25 ng/μl, K48-linked diubiquitin 5.6 μM, avg, read-out: Dundee IC50 μM (avg in vitro MS assay). A digest of the protocol: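 USP30 (25 ng/μl) preincubated with compound 5 min at RT in Tris/BSA/DTT buffer, then K48-linked diubiquitin (5.6 μM) added for 45 min at RT. Stopped with 2% TFA; cleavage quantified by MALDI-TOF mass spectrometry to give IC50.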

For test [1], the target named is recombinant USP30 (amino acids 57-517 of the human sequence) (Homo sapiens (Human), UniProt Q70CQ3). Description: In vitro USP30 biochemical assay (Ubiquitin-Rhodamine).
Method: In vitro biochemical assay to establish the potency of compounds for USP30 inhibition: a 384-well plate assay using a fluorophore tagged substrate of USP30 was used for in vitro screening of compounds. Each compound was tested at 10 different concentrations (0.5 to 10,000 nM) in duplicate wells. Compounds were pre-incubated at 25° C. for 30 min in an assay buffer consisting of 20 mM Tris/HCl, pH8.0, 1 mM GSH, 0.01% Triton X-100, 0.03% BGG and 1.5 nM recombinant USP30 (amino acids 57-517 of the human sequence with a C-terminal 6-His tag). Following the pre-incubation, Ubiquitin-Rhodamine substrate dissolved in the assay buffer was added at the final concentration of 25 nM to each well and plates were incubated at 25° C. for an additional 75 minutes. The reaction was stopped by adding 10 mM citric acid and fluorescence was read using excitation wavelength 485 nm, emission of 535 nm. Data were analyzed using Graph Pad Prism software with a four-parameter (floating slope) fit to log concentration data to determine IC50s.
Where [2] appears, read: USP30 IC50 μM (avg), Ubiquitin-Rhodamine substrate 25 nM, 1.5 nM recombinant USP30.
The mark [3] stands for this setting: read-out: USP30 IC50 μM (avg), Ubiquitin-Rhodamine substrate 25 nM, 1.5 nM recombinant USP30.

Where two headings read alike, the source gives them in different places. Some results are limits rather than exact numbers.

Chain of USP30 (Q70CQ3 whole entry): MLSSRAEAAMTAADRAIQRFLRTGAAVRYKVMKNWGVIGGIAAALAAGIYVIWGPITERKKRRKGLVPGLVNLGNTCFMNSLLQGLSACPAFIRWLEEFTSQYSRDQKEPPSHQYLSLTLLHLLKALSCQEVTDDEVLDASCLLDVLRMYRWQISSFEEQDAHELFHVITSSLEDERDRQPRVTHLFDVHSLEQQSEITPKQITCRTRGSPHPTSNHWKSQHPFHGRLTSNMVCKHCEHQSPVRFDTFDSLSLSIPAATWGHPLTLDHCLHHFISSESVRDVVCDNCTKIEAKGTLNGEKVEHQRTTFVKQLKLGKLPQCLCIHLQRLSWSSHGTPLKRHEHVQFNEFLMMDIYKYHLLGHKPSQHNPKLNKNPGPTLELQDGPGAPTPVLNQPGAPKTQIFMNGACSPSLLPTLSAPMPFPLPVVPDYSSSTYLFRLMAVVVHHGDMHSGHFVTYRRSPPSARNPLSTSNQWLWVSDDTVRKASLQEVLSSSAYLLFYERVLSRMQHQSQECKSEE
Chain of recombinant USP30 (amino acids 57-517 of the human sequence) (Q70CQ3 57-517): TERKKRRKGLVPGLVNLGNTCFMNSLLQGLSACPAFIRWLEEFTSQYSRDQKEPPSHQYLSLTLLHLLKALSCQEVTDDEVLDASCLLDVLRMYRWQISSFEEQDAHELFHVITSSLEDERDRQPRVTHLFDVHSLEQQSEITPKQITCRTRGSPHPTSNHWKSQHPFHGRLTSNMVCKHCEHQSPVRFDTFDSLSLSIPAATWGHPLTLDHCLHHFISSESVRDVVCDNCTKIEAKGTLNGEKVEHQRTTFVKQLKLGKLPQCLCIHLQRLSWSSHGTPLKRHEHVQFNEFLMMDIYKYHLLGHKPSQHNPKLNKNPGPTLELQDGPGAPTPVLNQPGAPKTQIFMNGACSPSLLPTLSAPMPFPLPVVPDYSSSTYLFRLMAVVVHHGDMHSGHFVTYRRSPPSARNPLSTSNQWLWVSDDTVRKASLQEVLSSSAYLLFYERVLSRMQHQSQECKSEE

By IC50 is commonly meant the point on the concentration scale where inhibition reaches its midpoint. With `O=C(N[C@@H](Cc1ccccc1)C(=O)Nc1cccc2c(S(=O)(=O)NC3COC3)cccc12)c1ccc(F)cc1` [Compound I-131, (S)-4-fluoro-N-(1-(5-(N-oxetan-3-ylsulfamoyl)naphthalen-1-ylamino)-1-oxo-3-phenylpropan-2-yl)benzamide], the concentration for half-maximal inhibition (IC50) (on USP30; in test [1] (setting [2])) was 0.05 to 1 µM in each case.
Turning to `CCNS(=O)(=O)c1ccc(NC(=O)[C@H](Cc2cccnc2)N(C)C(=O)c2ccc(F)cc2)cc1` [Compound I-90, (S)-N-(1-(4-(N-ethylsulfamoyl)phenylamino)-1-oxo-3-(pyridin-3-yl)propan-2-yl)-4-fluoro-N-methylbenzamide], the half-inhibitory concentration (IC50) at USP30 was above 10 µM; in test [1] (setting [2]) it was 1 to 10 µM.
In the case of `O=C(N[C@@H](Cc1ccccc1)C(=O)Nc1ccc(S(=O)(=O)NCCCN2CCOCC2)nc1)c1ccc(F)cc1` [Compound I-112, (S)-4-fluoro-N-(1-(6-(N-(3-morpholinopropyl)sulfamoyl)pyridin-3-ylamino)-1-oxo-3-phenylpropan-2-yl)benzamide], the IC50 (on USP30; in test [1] (setting [2])) was 0.05 to 1 µM in each case.
In the case of `CCNS(=O)(=O)c1ccc(NC(=O)[C@H](Cc2ccccc2)NC(=O)c2ccc(F)cc2)cn1` [Compound I-105, (S)-N-(1-(6-(N-ethylsulfamoyl)pyridin-3-ylamino)-1-oxo-3-phenylpropan-2-yl)-4-fluorobenzamide], the concentration for half-maximal inhibition (IC50) (at USP30; in test [1] (setting [2])) was 0.05 to 1 µM in each case.
As to `CC(C)(C)NS(=O)(=O)c1ccc(NC(=O)[C@H](Cc2ccccc2)NC(=O)c2ccc(F)cc2)cc1F` [Compound I-156, (S)-N-(1-(4-(N-tert-butylsulfamoyl)-3-fluorophenylamino)-1-oxo-3-phenylpropan-2-yl)-4-fluorobenzamide], the IC50 (on USP30; in test [1] (setting [3])) was below 0.05 µM throughout.
Take `CC(C)(NS(=O)(=O)c1ccc(NC(=O)[C@H](Cc2ccccc2)NC(=O)c2ccc(F)cc2)cc1)C(F)(F)F` [Compound I-25, (S)-4-fluoro-N-(1-oxo-3-phenyl-1-(4-(N-(1,1,1-trifluoro-2-methylpropan-2-yl)sulfamoyl)phenylamino)propan-2-yl)benzamide]: the 50% inhibitory concentration (IC50) (at USP30; in test [1] (setting [3])) was below 0.05 µM each time.
Consider `CN(C(=O)c1ccc(F)cc1)[C@@H](Cc1ccccc1)C(=O)Nc1ccc(S(=O)(=O)NC23CC(C2)C3)cc1` [Compound I-72, (S)-N-(1-(4-(N-bicyclo[1.1.1]pentan-1-ylsulfamoyl)phenylamino)-1-oxo-3-phenylpropan-2-yl)-4-fluoro-N-methylbenzamide], for which the IC50 (on USP30; in test [1] (setting [2])) was 1 to 10 µM in each case.
With `CC(C)(C)NS(=O)(=O)c1ccc(NC(=O)[C@H](Cc2ccccc2)NC(=O)c2cccnc2)cc1` [Compound I-87, (S)-N-(1-(4-(N-tert-butylsulfamoyl)phenylamino)-1-oxo-3-phenylpropan-2-yl)nicotinamide], the 50% inhibitory concentration (IC50) (at USP30; in test [1] (setting [2])) was 0.05 to 1 µM in each case.
As for `O=C(N[C@@H](Cc1ccccc1)C(=O)Nc1ccc(S(=O)(=O)NCCO)cc1)c1ccc(F)cc1` [Compound I-138, (S)-4-fluoro-N-(1-(4-(N-(2-hydroxyethyl)sulfamoyl)phenylamino)-1-oxo-3-phenylpropan-2-yl)benzamide], the IC50 is below 0.05 µM at USP30 and 0.05 to 1 µM in test [1] (setting [2]).
On the same counts, the results for `O=C(N[C@@H](Cc1ccccn1)C(=O)Nc1ccc(S(=O)(=O)NC2COC2)cc1)c1ccc(F)cc1` [Compound I-140, (S)-4-fluoro-N-(1-(4-(N-oxetan-3-ylsulfamoyl)phenylamino)-1-oxo-3-(pyridin-2-yl)propan-2-yl)benzamide] are 0.05 to 1 µM and 0.05 to 1 µM.
With `O=C(NC1(C(=O)Nc2ccc(S(=O)(=O)NC34CC(C3)C4)cc2)Cc2ccccc2C1)c1ccc(F)cc1` [Compound I-102, N-(4-(N-bicyclo[1.1.1]pentan-1-ylsulfamoyl)phenyl)-2-(4-fluorobenzamido)-2,3-dihydro-1H-indene-2-carboxamide], the half-maximal inhibitory concentration (IC50) was 0.05 to 1 µM on USP30 and above 10 µM in test [1] (setting [3]).
With `CCNS(=O)(=O)c1ccc(NC(=O)[C@H](Cc2ccccc2)NC(=O)c2ccc(F)cc2)nc1` [Compound I-117, (S)-N-(1-(5-(N-ethylsulfamoyl)pyridin-2-ylamino)-1-oxo-3-phenylpropan-2-yl)-4-fluorobenzamide], the half-inhibitory concentration (IC50) at USP30 is below 0.05 µM; in test [1] (setting [2]), 0.05 to 1 µM.
Regarding `O=C(N[C@H](Cc1ccccc1)C(=O)Nc1ccc(S(=O)(=O)NC23CC(C2)C3)cc1)c1ccc(F)cc1` [Compound I-99, (R)-N-(1-(4-(N-bicyclo[1.1.1]pentan-1-ylsulfamoyl)phenylamino)-1-oxo-3-phenylpropan-2-yl)-4-fluorobenzamide], the half-inhibitory concentration (IC50) (at USP30; in test [1] (setting [3])) was above 10 µM in each case.
With `CNS(=O)(=O)c1ccc(NC(=O)[C@H](Cc2ccccc2)NC(=O)c2ccc(F)cc2)cc1` [Compound I-30, (S)-4-fluoro-N-(1-(4-(N-methylsulfamoyl)phenylamino)-1-oxo-3-phenylpropan-2-yl)benzamide], the 50% inhibitory concentration (IC50) (on USP30; in test [1] (setting [2])) was 0.05 to 1 µM throughout.
As to `O=C(N[C@@H](Cc1ccccc1)C(=O)Nc1ccc(S(=O)(=O)NC23CC(C2)C3)cc1)c1cccc(F)c1` [Compound I-95, (S)-N-(1-(4-(N-bicyclo[1.1.1]pentan-1-ylsulfamoyl)phenylamino)-1-oxo-3-phenylpropan-2-yl)-3-fluorobenzamide], the half-maximal inhibitory concentration (IC50) (on USP30; in test [1] (setting [2])) was 0.05 to 1 µM throughout.
For `CC(C)(C)C[S+]([O-])c1ccc(NC(=O)[C@H](Cc2ccccc2)NC(=O)c2ccc(F)cc2)cc1` (stereo partly drawn) [Compound I-4, 4-fluoro-N-((2S)-1-(4-(neopentylsulfinyl)phenylamino)-1-oxo-3-phenylpropan-2-yl)benzamide], the 50% inhibitory concentration (IC50) on USP30 was in the range of 0.05 to 1 µM; in test [1] (setting [2]), 1 to 10 µM.
On the same counts, the results for `COc1cc(S(=O)(=O)NC2COC2)ccc1NC(=O)[C@H](Cc1ccccc1)NC(=O)c1ccc(F)cc1` [Compound I-144, (S)-4-fluoro-N-(1-(2-methoxy-4-(N-oxetan-3-ylsulfamoyl)phenylamino)-1-oxo-3-phenylpropan-2-yl)benzamide] are 0.05 to 1 µM and 0.05 to 1 µM.
On the same counts, the results for `O=C(N[C@@H](Cc1ccccc1)C(=O)Nc1ccc(S(=O)(=O)NC23CC(C2)C3)cc1)c1cccnc1` [Compound I-79, (S)-N-(1-(4-(N-bicyclo[1.1.1]pentan-1-ylsulfamoyl)phenylamino)-1-oxo-3-phenylpropan-2-yl)nicotinamide] are 0.05 to 1 µM and 1 to 10 µM.
On the same counts, the results for `COCCNS(=O)(=O)c1ccc(NC(=O)[C@H](Cc2ccccc2)NC(=O)c2ccc(F)cc2)cn1` [Compound I-108, (S)-4-fluoro-N-(1-(6-(N-(2-methoxyethyl)sulfamoyl)pyridin-3-ylamino)-1-oxo-3-phenylpropan-2-yl)benzamide] are 0.05 to 1 µM and 0.05 to 1 µM.
With `O=C(N[C@@H](Cc1ccccc1)C(=O)Nc1ccc(S(=O)(=O)NC23CC(C2)C3)cc1)c1ccccn1` [Compound I-76, (S)-N-(1-(4-(N-bicyclo[1.1.1]pentan-1-ylsulfamoyl)phenylamino)-1-oxo-3-phenylpropan-2-yl)picolinamide], the figures for the half-maximal inhibitory concentration (IC50) (at USP30; in test [1] (setting [2])) were 0.05 to 1 µM and 1 to 10 µM, respectively.
